Measured values published in patent publication US20100075854A1, “HERBICIDE COMBINATION COMPRISING DIMETHOSXYTRIAZINYL-SUBSTITUTED DIFLUOROMETHANESULFONYLANILIDES” (Bayer CropScience AG, priority 2008, published 2010).
Like-named read-outs stand apart in the source and are kept apart here.

Key:
Assay in all cases: Post-emergence action, greenhouse pot test, visual scoring
Type in all cases: in vivo
[1] = test system: Matricaria inodora (MATIN); conditions: Tripleurospermum inodorum, read-out: % activity found; for inhibition at 30 g/ha / inhibition at 10 g/ha: MATIN; for inhibition at 30 g/ha: 30 g of ai/ha; for inhibition at 10 g/ha: 10 g of ai/ha
Experimental: (§1) Seeds or rhizome pieces of mono- and dicotyledonous harmful and useful plants were placed in peat pots (diameter 4 cm) filled with sandy loam and then covered with soil. The pots were kept in a greenhouse under optimum conditions. In addition, harmful plants encountered in paddy rice cultivation were cultivated in pots with a water level 2 cm above the soil surface.
(§2) About three weeks after the start of the cultivation, the test plants were treated at the 2- to 3-leaf stage. The herbicides, formulated as powder or liquid concentrates, were, either alone or in the combinations according to the invention, sprayed in various dosages on to the green parts of the plants using an application rate of 600 l of water/ha (converted). For further cultivation of the plants, the pots were then again kept under optimum conditions in a greenhouse.
(§3) The visual scoring of the herbicidal effects was carried out in intervals up to 21 days after the treatment. Scoring was carried out in percent in comparison to the untreated control plants. 0%=no herbicidal activity, 100%=complete herbicidal activity=complete kill.
(§4) The percentages from the treatments with the herbicides alone (=individual application) and with the combinations according to the invention (=mixtures) were employed to calculate interactions using the method of Colby. When the observed efficacies of the mixtures exceed the formal sum of the values of the tests with individual applications, they also exceed the expected value according to Colby, which is calculated using the formula below (cf. S. R. Colby; in Weeds 15 (1967) pp. 20 to 22):
(§5) • A, B=activity of components A and B in percent at a dosage of a and b g of ai/ha (=gramm of active substance per hectare), respectively. • E=expected value in % at a dosage of a+b g of ai/ha.

[2] = test system: Lolium multiflorum (LOLMU); conditions: read-out: % activity found; for inhibition at 30 g/ha: 30 g of ai/ha; for inhibition at 10 g/ha: 10 g of ai/ha
Experimental: as §1, §2, §3, §4, §5

[3] = test system: Triticum aestivum (TRZAS); conditions: read-out: % activity found; for inhibition at 30 g/ha: 30 g of ai/ha
Experimental: as §1, §2, §3, §4, §5

Oryza sativa (ORYSA) = conditions: read-out: % activity found
Experimental: as §1, §2, §3, §4, §5

[4] = test system: Cyperus esculentus (CYPES); conditions: for (7) % activity found: CYPES, 21 DAT
Experimental: as §1, §2, §3, §4, §5

Avena fatua (AVEFA) = conditions: read-out: % activity found
Experimental: as §1, §2, §3, §4, §5

[5] = test system: Alopecurus myosuroides (ALOMY); conditions: 504 h, read-out: % activity found
Experimental: as §1, §2, §3, §4, §5

Zea mays (ZEAMX) = conditions: read-out: % activity found; for inhibition at 10 g/ha: 10 g of ai/ha
Experimental: as §1, §2, §3, §4, §5

Viola tricolor (VIOTR) = conditions: read-out: % activity found; for inhibition at 10 g/ha / inhibition at 30 g/ha: VIOTR; for inhibition at 10 g/ha: 10 g of ai/ha; for inhibition at 30 g/ha: 30 g of ai/ha
Experimental: as §1, §2, §3, §4, §5

[6] = test system: Amaranthus retroflexus (AMARE); conditions: read-out: % activity found; for inhibition at 10 g/ha / inhibition at 30 g/ha: AMARE; for inhibition at 10 g/ha: 10 g of ai/ha; for inhibition at 30 g/ha: 30 g of ai/ha
Experimental: as §1, §2, §3, §4, §5

[7] = test system: Abuthilon theophrasti (ABUTH); conditions: Abutilon theophrasti, read-out: % activity found; for inhibition at 10 g/ha / inhibition at 30 g/ha: ABUTH; for inhibition at 10 g/ha: 10 g of ai/ha; for inhibition at 30 g/ha: 30 g of ai/ha
Experimental: as §1, §2, §3, §4, §5

[8] = test system: Fallopia (ex Polygonum) convolvulus (POLCO); conditions: read-out: % activity found
Experimental: as §1, §2, §3, §4, §5

Veronica persica (VERPE) = conditions: read-out: % activity found; for inhibition at 10 g/ha: 10 g of ai/ha
Experimental: as §1, §2, §3, §4, §5

[9] = test system: Pharbitis purpurea (PHBPU); conditions: Ipomoea purpurea, read-out: % activity found; for inhibition at 10 g/ha / inhibition at 30 g/ha: PHBPU; for inhibition at 10 g/ha: 10 g of ai/ha; for inhibition at 30 g/ha: 30 g of ai/ha
Experimental: as §1, §2, §3, §4, §5

[10] = Cyperus esculentus, 504 h, read-out: % activity found

In the case of `CCOC(=O)C(C)OC(=O)c1cc(Oc2ccc(C(F)(F)F)cc2Cl)ccc1[N+](=O)[O-]` (racemic) [B1-5, (±)-2-ethoxy-1-methyl-2-oxoethyl 5-[2-chloro-4-(trifluoromethyl)phenoxy]-2-nitrobenzoate], the inhibition at 30 g/ha ([1]; 504 h, 21 DAT) is reported as 80%, the inhibition at 30 g/ha ([2]; 504 h, 21 DAT) is reported as 20% and the inhibition at 30 g/ha ([3]; 504 h, TRZAS, 21 DAT) is reported as 20%. It also gave an inhibition at 30 g/ha (Oryza sativa (ORYSA); 240 h, ORYSA, 10 DAT, 30 g of ai/ha) of 40%.

`O=C(O)COc1ccc(Cl)cc1Cl` [B5-2, (2,4-dichlorophenoxy)acetic acid] was tested, and the inhibition at 210 g/ha ([3]; 240 h) was 0%, the inhibition at 70 g/ha [4, 10] was 0% and the inhibition at 70 g/ha (Avena fatua (AVEFA); 504 h) was 0%. For the same compound, the inhibition at 210 g/ha (Avena fatua (AVEFA); 504 h) was 0%, the inhibition at 70 g/ha [5] was 0% and the inhibition at 210 g/ha [5] was 0%. For the same compound, the inhibition at 70 g/ha (Zea mays (ZEAMX); 240 h) was 0%, the inhibition at 210 g/ha (Zea mays (ZEAMX); 240 h) was 40% and the inhibition at 70 g/ha (Zea mays (ZEAMX); 504 h) was 0%. It also gave an inhibition at 210 g/ha (Viola tricolor (VIOTR); 504 h) of 60%.

`C[C@@H](Oc1ccc(Oc2ccc(C#N)cc2F)cc1)C(=O)O` [B7-2, (2R)-2-[4-(4-cyano-2-fluorophenoxy)phenoxy]propanoic acid] gave an inhibition at 25 g/ha ([1]; 504 h) of 0%, an inhibition at 75 g/ha ([1]; 504 h) of 0% and an inhibition at 25 g/ha ([6]; 240 h) of 0%. For the same compound, the inhibition at 25 g/ha ([6]; 504 h) was 0%, the inhibition at 75 g/ha ([6]; 504 h) was 0% and the inhibition at 25 g/ha [4, 10] was 0%. The inhibition at 75 g/ha [4, 10] was 0%, the inhibition at 25 g/ha ([7]; 504 h) was 0% and the inhibition at 75 g/ha ([7]; 504 h) was 0%. The inhibition at 25 g/ha (Avena fatua (AVEFA); 504 h) was 0%, the inhibition at 25 g/ha ([8]; 240 h) was 0% and the inhibition at 75 g/ha ([8]; 240 h) was 0%. The inhibition at 25 g/ha ([8]; 504 h) was 0%, the inhibition at 75 g/ha ([8]; 504 h) was 0% and the inhibition at 25 g/ha (Oryza sativa (ORYSA); 504 h) was 10%. It also gave an inhibition at 75 g/ha (Oryza sativa (ORYSA); 504 h) of 20%, an inhibition at 25 g/ha [5] of 0% and an inhibition at 75 g/ha [5] of 20%. For the same compound, the inhibition at 25 g/ha (Zea mays (ZEAMX); 240 h) was 70%, the inhibition at 25 g/ha (Zea mays (ZEAMX); 504 h) was 70% and the inhibition at 75 g/ha (Viola tricolor (VIOTR); 240 h) was 0%. The inhibition at 25 g/ha (Viola tricolor (VIOTR); 504 h) was 0%, the inhibition at 75 g/ha (Viola tricolor (VIOTR); 504 h) was 0% and the inhibition at 75 g/ha (Veronica persica (VERPE); 240 h) was 0%. It also gave an inhibition at 25 g/ha (Veronica persica (VERPE); 504 h) of 0%, an inhibition at 75 g/ha (Veronica persica (VERPE); 504 h) of 0% and an inhibition at 25 g/ha ([9]; 240 h) of 0%. The inhibition at 75 g/ha ([9]; 240 h) was 20%, the inhibition at 25 g/ha ([9]; 504 h) was 0% and the inhibition at 75 g/ha ([9]; 504 h) was 0%.

`C[C@@H](Oc1ccc(Oc2nc3ccc(Cl)cc3o2)cc1)C(=O)O` [B7-4, (R)-2-[4-(6-chlorobenzoxazol-2-yloxy)phenoxy]propionic acid] showed an inhibition at 10 g/ha ([1]; 240 h, 10 DAT) of 0%, an inhibition at 30 g/ha ([1]; 240 h, 10 DAT) of 0% and an inhibition at 10 g/ha ([1]; 504 h, 21 DAT) of 0%. The inhibition at 30 g/ha ([1]; 504 h, 21 DAT) was 0%, the inhibition at 10 g/ha ([2]; 240 h, 10 DAT) was 20% and the inhibition at 10 g/ha ([2]; 504 h, 21 DAT) was 0%. For the same compound, the inhibition at 30 g/ha ([2]; 504 h, 21 DAT) was 0%, the inhibition at 10 g/ha ([3]; 240 h, TRZAS, 10 DAT, 10 g of ai/ha) was 0% and the inhibition at 30 g/ha ([3]; 240 h, TRZAS, 10 DAT) was 0%. It also gave an inhibition at 10 g/ha ([6]; 240 h, 10 DAT) of 0%, an inhibition at 30 g/ha ([6]; 240 h, 10 DAT) of 0% and an inhibition at 10 g/ha ([6]; 504 h, 21 DAT) of 0%. For the same compound, the inhibition at 30 g/ha ([6]; 504 h, 21 DAT) was 0%, the “(7) % activity found” value ([4]; (6) dose of B7-4 10, alone) was 0% and the “(7) % activity found” value ([4]; (6) dose of B7-4 30, alone) was 0%. The inhibition at 10 g/ha ([7]; 240 h, 10 DAT) was 0%, the inhibition at 30 g/ha ([7]; 240 h, 10 DAT) was 0% and the inhibition at 10 g/ha ([7]; 504 h, 21 DAT) was 0%. The inhibition at 30 g/ha ([7]; 504 h, 21 DAT) was 0%, the inhibition at 10 g/ha (Avena fatua (AVEFA); 240 h, AVEFA, 10 DAT, 10 g of ai/ha) was 0% and the inhibition at 30 g/ha (Avena fatua (AVEFA); 504 h, AVEFA, 21 DAT, 30 g of ai/ha) was 0%. For the same compound, the inhibition at 10 g/ha ([8]; 504 h, POLCO, 21 DAT, 10 g of ai/ha) was 0%, the inhibition at 30 g/ha ([8]; 504 h, POLCO, 21 DAT, 30 g of ai/ha) was 0% and the inhibition at 10 g/ha ([5]; ALOMY, 21 DAT, 10 g of ai/ha) was 30%. It also gave an inhibition at 30 g/ha ([5]; ALOMY, 21 DAT, 30 g of ai/ha) of 30%, an inhibition at 10 g/ha (Zea mays (ZEAMX); 240 h, ZEAMX, 10 DAT) of 30% and an inhibition at 30 g/ha (Zea mays (ZEAMX); 240 h, ZEAMX, 10 DAT, 30 g of ai/ha) of 70%. For the same compound, the inhibition at 10 g/ha (Zea mays (ZEAMX); 504 h, ZEAMX, 21 DAT) was 20%, the inhibition at 10 g/ha (Viola tricolor (VIOTR); 240 h, 10 DAT) was 0% and the inhibition at 30 g/ha (Viola tricolor (VIOTR); 240 h, 10 DAT) was 0%. It also gave an inhibition at 10 g/ha (Viola tricolor (VIOTR); 504 h, 21 DAT) of 0%, an inhibition at 30 g/ha (Viola tricolor (VIOTR); 504 h, 21 DAT) of 0% and an inhibition at 10 g/ha (Veronica persica (VERPE); 240 h, VERPE, 10 DAT) of 0%. It also gave an inhibition at 10 g/ha (Veronica persica (VERPE); 504 h, VERPE, 21 DAT) of 0%, an inhibition at 30 g/ha (Veronica persica (VERPE); 504 h, VERPE, 21 DAT, 30 g of ai/ha) of 0% and an inhibition at 10 g/ha ([9]; 240 h, 10 DAT) of 0%. It also gave an inhibition at 30 g/ha ([9]; 240 h, 10 DAT) of 0%, an inhibition at 10 g/ha ([9]; 504 h, 21 DAT) of 0% and an inhibition at 30 g/ha ([9]; 504 h, 21 DAT) of 0%.
